Source: PubChem BioAssay (NCI)
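Dose response: 5 concentrations. Exposure: 48 h. Format: 96-well plates. Endpoint: linear interpolation; highest concentration if not reached. TGI: concentration producing complete growth inhibition.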

What was measured:
Experiment in all cases: inhibition of tumour cell growth, NCI panel, 48 h
SK-MEL-2 melanoma = test system: SK-MEL-2 melanoma
NCI/ADR-RES ovarian = test system: NCI/ADR-RES ovarian
PC-3 prostate = test system: PC-3 prostate
UO-31 renal = test system: UO-31 renal
HL-60(TB) leukemia = test system: HL-60(TB) leukemia

COCN1C(=O)[C@@H]2CCCN2C(=O)c2ccc([N+](=O)[O-])cc21
TGI (SK-MEL-2 melanoma): > 100 µM
TGI (NCI/ADR-RES ovarian): > 100 µM
TGI (PC-3 prostate): > 100 µM
TGI (UO-31 renal): > 100 µM
TGI (HL-60(TB) leukemia): > 100 µM

COC(=O)[C@@H]1OC(C)(c2ccccc2)O[C@H]1C(=O)OC
TGI (SK-MEL-2 melanoma): > 100 µM
TGI (NCI/ADR-RES ovarian): > 100 µM
TGI (PC-3 prostate): > 100 µM
TGI (UO-31 renal): > 100 µM
TGI (HL-60(TB) leukemia): > 100 µM

COc1ccc(C2=NN(C(=O)c3cccnc3)C(O)(c3cc(F)c(Cl)cc3Cl)C2)cc1OC (stereo not drawn)
TGI (SK-MEL-2 melanoma): 32 µM
TGI (NCI/ADR-RES ovarian): 49.9 µM
TGI (PC-3 prostate): 43.3 µM
TGI (UO-31 renal): 85 µM
TGI (HL-60(TB) leukemia): 40.9 µM

O=C(c1ccccc1)C1C[C@H]2CO[C@H](c3ccccc3)N2C1=O (stereo partly drawn)
TGI (SK-MEL-2 melanoma): > 100 µM
TGI (NCI/ADR-RES ovarian): > 100 µM
TGI (PC-3 prostate): > 100 µM
TGI (UO-31 renal): > 100 µM

CC1c2cc(c3c(c2O)CN([C@@H](C)C2CCCCC2)CO3)C(C)c2cc(c3c(c2O)CN([C@@H](C)C2CCCCC2)CO3)C(C)c2cc(c3c(c2O)CN([C@@H](C)C2CCCCC2)CO3)C(C)c2cc1c1c(c2O)CN([C@@H](C)C2CCCCC2)CO1 (stereo partly drawn)
TGI (SK-MEL-2 melanoma): 6.2 µM
TGI (NCI/ADR-RES ovarian): 2.67 µM
TGI (UO-31 renal): 3.21 µM
TGI (HL-60(TB) leukemia): 5.59 µM

COC(=O)C1(C(=O)OC)CC2=C(S(=O)(=O)c3ccccc3)C[C@H](C#N)[C@H]2C1
TGI (SK-MEL-2 melanoma): > 100 µM
TGI (NCI/ADR-RES ovarian): > 100 µM
TGI (PC-3 prostate): > 100 µM
TGI (UO-31 renal): > 100 µM
TGI (HL-60(TB) leukemia): > 100 µM

O=C(/C=C/c1ccc2c(c1)OCO2)CC(=O)/C=C/c1ccc2c(c1)OCO2
TGI (SK-MEL-2 melanoma): > 100 µM
TGI (NCI/ADR-RES ovarian): > 100 µM
TGI (PC-3 prostate): > 100 µM
TGI (UO-31 renal): > 100 µM
TGI (HL-60(TB) leukemia): > 100 µM

O=c1c(=[n+]2ccc(=C([O-])c3ccccc3)cc2)/c(=N/S(=O)(=O)c2ccccc2)c(=O)c2ccccc12
TGI (SK-MEL-2 melanoma): 8.63 µM
TGI (NCI/ADR-RES ovarian): 24.3 µM
TGI (PC-3 prostate): 23.6 µM
TGI (UO-31 renal): 23.9 µM
TGI (HL-60(TB) leukemia): 4.95 µM

CCOC(=O)c1ccc(Nc2nc3cc(C(F)(F)F)ccc3nc2C(=O)OCC)cc1
TGI (NCI/ADR-RES ovarian): > 100 µM
TGI (PC-3 prostate): > 100 µM
TGI (UO-31 renal): > 100 µM
TGI (HL-60(TB) leukemia): > 100 µM

CCO/C=C(\C(=O)OC)S(=O)(=O)c1ccc(C)cc1
TGI (SK-MEL-2 melanoma): > 100 µM
TGI (NCI/ADR-RES ovarian): > 100 µM
TGI (PC-3 prostate): > 100 µM
TGI (UO-31 renal): > 100 µM
TGI (HL-60(TB) leukemia): > 100 µM

Cn1c(=O)c2c(nc3n(C)c(=O)c4ccccc4n23)n(C)c1=O
TGI (SK-MEL-2 melanoma): > 100 µM
TGI (NCI/ADR-RES ovarian): > 100 µM
TGI (PC-3 prostate): > 100 µM
TGI (UO-31 renal): > 100 µM
TGI (HL-60(TB) leukemia): > 100 µM

CC1(O)Oc2ccc3ccccc3c2C=C1C(N)=O (stereo not drawn)
TGI (SK-MEL-2 melanoma): > 100 µM
TGI (PC-3 prostate): > 100 µM
TGI (UO-31 renal): > 100 µM
TGI (HL-60(TB) leukemia): > 100 µM

COc1cccc(C2c3cc4c(cc3OC(N3CCCCC3)C2C)OCO4)c1OC (stereo not drawn)
TGI (SK-MEL-2 melanoma): 26 µM
TGI (PC-3 prostate): 42.8 µM
TGI (UO-31 renal): 48.6 µM

COC(=O)[C@H](COC(=O)/C=C/c1ccc(OC(C)=O)c(OC(C)=O)c1)NC(=O)/C=C/c1ccc(OC(C)=O)c(OC(C)=O)c1
TGI (SK-MEL-2 melanoma): 35.2 µM
TGI (NCI/ADR-RES ovarian): > 100 µM
TGI (PC-3 prostate): 31.2 µM
TGI (HL-60(TB) leukemia): > 100 µM

CCN(CC)C(=S)SS(=O)(=O)c1ccc(NC(C)=O)cc1
TGI (SK-MEL-2 melanoma): > 100 µM
TGI (NCI/ADR-RES ovarian): 95.4 µM
TGI (PC-3 prostate): > 100 µM
TGI (UO-31 renal): 42.6 µM
TGI (HL-60(TB) leukemia): 76.4 µM

O=C1C=C2CC[C@H]3[C@@H]4CC[C@H](OC(=O)c5cccc6cc7ccccc7nc56)[C@H]4CC[C@@H]3[C@H]2CC1
TGI (SK-MEL-2 melanoma): > 100 µM
TGI (NCI/ADR-RES ovarian): > 100 µM
TGI (PC-3 prostate): > 100 µM
TGI (UO-31 renal): > 100 µM
TGI (HL-60(TB) leukemia): > 100 µM

COC(=O)c1ccccc1C1CN=NC12Cc1cc(C)cc(C)c1C2=O (stereo not drawn)
TGI (SK-MEL-2 melanoma): > 100 µM
TGI (NCI/ADR-RES ovarian): > 100 µM
TGI (PC-3 prostate): > 100 µM
TGI (UO-31 renal): > 100 µM
TGI (HL-60(TB) leukemia): 51.7 µM
